Measured values reported in patent US8981114B2, “Derivatives of 1-(substituted sulfonyl)-2-aminoimidazoline as antitumor and antiproliferative agents” (OncoArendi Therapeutics Sp. z.o.o., priority 2013, dated 2015).

Each molecule was assayed on colon human tumor (HT-29) cells (assay: Cell growth inhibitory activity, standard MTT assay). Settings: Homo sapiens, MTT assay after 72 hr exposure, 0.1% DMSO, read-out: IC50 range.
Assay type: cell-based
Procedure: Cell growth inhibitory activity of compounds of this invention was determined using a standard MTT assay. Adherent cells of colon human tumor (HT-29) sourced from ATCC (cells number: HTB-38) were treated with DMSO solutions of tested compounds with the ultimate concentration of DMSO in the test solution being 0.1%. Following the 72 hour long treatment MTT was added, and after a brief incubation the resulting formazan was dissolved in addional DMSO and the solutions were scanned using 570 nm wavelength.

IC50 [µM] | Compound
< 0.1 | CC(C)NC(=O)N1CCc2cc(S(=O)(=O)N3C[C@H](c4ccccc4)N=C3N)ccc21 [Example 98]

Same assay, conditions: MTT assay after 72 hr exposure, 0.1% DMSO, read-out: IC50 range

Compound | IC50 [µM]
NC1=N[C@@H](c2ccccc2)CN1S(=O)(=O)c1ccc2c(c1)CCN2C(=O)C1CCCCC1 [Example 51] | < 0.1
NC1=N[C@@H](c2ccccc2)CN1S(=O)(=O)c1ccc2c(c1)CCN2C(=O)Cc1cccs1 [Example 43] | < 0.1
Cc1cccc([C@H]2CN(S(=O)(=O)c3ccc4c(c3)CCN4C(=O)c3cccn3C)C(N)=N2)c1 [Example 65] | 0.1 to 0.5
NC1=N[C@@H](c2ccccc2)CN1S(=O)(=O)c1ccc2c(c1)CCN2C(=O)Cc1ccccc1 [Example 48] | < 0.1
NC1=N[C@@H](c2ccccc2)CN1S(=O)(=O)c1ccc2c(c1)CCN2 [Example 70] | < 0.1
NC1=N[C@@H](C2CCCCC2)CN1S(=O)(=O)c1ccc2c(c1)CCN2C(=O)c1ccco1 [Example 37] | < 0.1
Cn1cccc1C(=O)N1CCc2cc(S(=O)(=O)N3C[C@H](c4ccccc4Cl)N=C3N)ccc21 [Example 64] | < 0.1
CC(=O)N1CCC(C(=O)N2CCc3cc(S(=O)(=O)N4C[C@H](c5ccccc5)N=C4N)ccc32)CC1 [Example 50] | < 0.1
CC1Cc2cc(S(=O)(=O)N3CC(c4ccccc4)N=C3N)ccc2N1C(=O)c1ccc(N)cc1 (mixture of isomers) [Example 54] | < 0.1
COCCNC(=O)N1CCc2cc(S(=O)(=O)N3CCN=C3N)ccc21 [Example 76] | 0.1 to 0.5
NC1=N[C@@H](c2ccccc2)CN1S(=O)(=O)c1ccc2c(c1)CCN2C(=O)c1cccnc1 [Example 53] | < 0.1
NC1=N[C@@H](c2ccccc2)CN1S(=O)(=O)c1ccc2c(c1)CCN2C(=O)c1cccc2ccccc12 [Example 52] | < 0.1
CC(C)NC(=S)N1CCc2cc(S(=O)(=O)N3C[C@H](c4ccccc4)N=C3N)ccc21 [Example 55] | < 0.1
CN(C)c1ccc(C(=O)N2CCc3cc(S(=O)(=O)N4C[C@H](c5ccccc5)N=C4N)ccc32)cc1 [Example 46] | < 0.1
CC(C)[C@H]1CN(S(=O)(=O)c2ccc3c(c2)CCN3C(=O)c2ccco2)C(N)=N1 [Example 36] | < 0.1
NC1=N[C@@H](c2ccccc2)CN1S(=O)(=O)c1ccc2c(c1)CCN2C(=O)c1ccccc1 [Example 44] | < 0.1

Next, values leading:

IC50 [µM] | Compound
> 0.5 | CCCC(=O)N1CCc2cc(S(=O)(=O)N3C[C@@H](c4ccccc4)N=C3N)ccc21 [Example 57]
0.1 to 0.5 | CCCCNC(=O)N1CCc2cc(S(=O)(=O)N3C[C@H](c4ccc(Cl)cc4)N=C3N)ccc21 [Example 97]
< 0.1 | CCC(=O)N1CCc2cc(S(=O)(=O)N3C[C@H](c4ccccc4)N=C3N)ccc21 [Example 40]
< 0.1 | CCCNC(=O)N1CCc2cc(S(=O)(=O)N3C[C@H](c4ccccc4C)N=C3N)ccc21 [Example 87]
> 0.5 | COc1ccc([C@H]2CN(S(=O)(=O)c3ccc4c(c3)CCN4C(=O)c3cccn3C)C(N)=N2)cc1 [Example 62]
< 0.1 | NC1=N[C@@H](c2ccccc2)CN1S(=O)(=O)c1ccc2c(c1)CCN2C(=O)c1cccs1 [Example 38]
< 0.1 | CC(C)(C)CNC(=O)N1CCc2cc(S(=O)(=O)N3C[C@H](c4ccccc4)N=C3N)ccc21 [Example 102]
< 0.1 | NC1=N[C@@H](c2ccccc2)CN1S(=O)(=O)c1ccc2c(c1)CCN2C(=O)NCC1CC1 [Example 100]
< 0.1 | CCOc1ccc(C(=O)N2CCc3cc(S(=O)(=O)N4C[C@H](c5ccccc5)N=C4N)ccc32)cc1 [Example 47]
0.1 to 0.5 | CC(=O)N1CCc2cc(S(=O)(=O)N3C[C@H](c4ccccc4)N=C3N)ccc21 [Example 39]
< 0.1 | CCCNC(=O)N1CCc2cc(S(=O)(=O)N3C[C@H](c4ccc(F)cc4)N=C3N)ccc21 [Example 83]
0.1 to 0.5 | CCCNC(=O)N1CCc2cc(S(=O)(=O)N3C[C@H](c4ccc(OC)cc4)N=C3N)ccc21 [Example 84]
< 0.1 | CCCCNC(=O)N1CCc2cc(S(=O)(=O)N3C[C@H](c4ccccc4C)N=C3N)ccc21 [Example 95]
< 0.1 | CCCCNC(=O)N1CCc2cc(S(=O)(=O)N3C[C@H](c4cccc(Cl)c4)N=C3N)ccc21 [Example 93]
< 0.1 | COC(=O)N1CCc2cc(S(=O)(=O)N3C[C@H](c4ccccc4)N=C3N)ccc21 [Example 49]
< 0.1 | CCCCNC(=O)N1CCc2cc(S(=O)(=O)N3C[C@H](c4ccccc4)N=C3N)ccc21 [Example 89]
< 0.1 | CCCC(=O)N1CCCc2cc(S(=O)(=O)N3C[C@H](c4ccccc4)N=C3N)ccc21 [Example 56]
< 0.1 | CC(C)C(=O)N1CCc2cc(S(=O)(=O)N3C[C@H](c4ccccc4)N=C3N)ccc21 [Example 42]
< 0.1 | CCCNC(=O)N1CCc2cc(S(=O)(=O)N3C[C@H](c4ccccc4)N=C3N)ccc21 [Example 82]
< 0.1 | NC1=N[C@@H](c2ccccc2)CN1S(=O)(=O)c1ccc2c(c1)CCN2C(=O)c1ccco1 [Example 35]
< 0.1 | CCCC(=O)N1CCc2cc(S(=O)(=O)N3C[C@H](c4ccccc4)N=C3N)ccc21 [Example 41]
